Patent US6838476B1, “Imidazoles with anti-inflammatory activity” (J. Uriach & Cia, SA, priority 1998, dated 2005)

Legend:
cyclooxygenase-1 (COX-1) = target: T1, cyclooxygenase-1 (COX-1) (Homo sapiens, UniProt P23219); assay: Inhibition of cyclooxygenase-1 (COX-1) activity in human blood (thromboxane B2 levels after ionophore A23187); type: cell-based; details: for inhibition at 10 µM: read-out: % inhibition COX-1 (10 μM), 10 μM test compound; for % inhibition COX-1 (10 μM): 10 μM test compound
T1 construct: from tissue; host or cells: heparinized human whole blood
Method: (§1) Inhibition of cyclooxgenase-1 (COX-1) and cyclooxygenase-2 (COX-2) Activity in Human Blood
Heparinized human blood from healthy volunteers who had not taken non-steroidal anti-inflammatory drugs (NSAIDs) for a week, and neither alcohol nor xanthines 24 h before blood collection, is used. Blood is divided into two groups; one will be used to determine COX-1 activity and the other one for COX-2. The procedure to follow will be different in each case.
For COX-1, 12-mL tubes are used. 5 μL of the test compound (in DMSO solution; in duplicate) are placed in each tube. Aditionally two tubes for blanks and two tubes for controls containing 5 μL of DMSO are used. Next, 1 mL of blood is added to each tube and they are stirred. The tubes are placed in a thermostatized bath at 37° C. for 5 h. Then, 5 μL of 5 mM ionophore A23187 is added to each tube, except to the blanks, and tubes are incubated for 30 min more at 37° C. After this time, the tubes are placed in ice and 100 μL of a 100 mM EGTA solution is added to stop the reaction. 2.5 mL of methanol is added to each tube to reach a final concentration of 70%. The tubes are stirred and frozen at −70° C. till their use. The COX-1 activity is determined by measuring thromboxane B2 levels in the samples. Blood is defrozen and centrifuged at 2000 g for 10 min at 4° C. 1 mL of supematant is evaporated under nitrogen to dryness. The solid residue thus obtained is resuspended in 1 mL of saline and the thromboxane B2 levels in these samples are determined using a kit (Kit Thromboxane B2, Biotrak EIA system RPN220 Amershan), according to the manufacturer's instructions.

cyclooxygenase-2 (COX-2) = target: T2, cyclooxygenase-2 (COX-2) (Homo sapiens, UniProt P35354); assay: Inhibition of cyclooxygenase-2 (COX-2) activity in human blood (prostaglandin E2 levels after LPS, aspirin added); type: cell-based; details: for inhibition at 10 µM: read-out: % inhibition COX-2 (10 μM), 10 μM test compound; for inhibition at 1 µM: read-out: % inhibition COX-2 (1 μM), 1 μM test compound; for % inhibition COX-2 (1 μM): 1 μM test compound; for % inhibition COX-2 (10 μM): 10 μM test compound
T2 construct: 5 μL of LPS is also added (in order to induce COX-2 activy); from tissue; host or cells: heparinized human whole blood, LPS-stimulated, with aspirin added
T2 sequence (P35354 18-604): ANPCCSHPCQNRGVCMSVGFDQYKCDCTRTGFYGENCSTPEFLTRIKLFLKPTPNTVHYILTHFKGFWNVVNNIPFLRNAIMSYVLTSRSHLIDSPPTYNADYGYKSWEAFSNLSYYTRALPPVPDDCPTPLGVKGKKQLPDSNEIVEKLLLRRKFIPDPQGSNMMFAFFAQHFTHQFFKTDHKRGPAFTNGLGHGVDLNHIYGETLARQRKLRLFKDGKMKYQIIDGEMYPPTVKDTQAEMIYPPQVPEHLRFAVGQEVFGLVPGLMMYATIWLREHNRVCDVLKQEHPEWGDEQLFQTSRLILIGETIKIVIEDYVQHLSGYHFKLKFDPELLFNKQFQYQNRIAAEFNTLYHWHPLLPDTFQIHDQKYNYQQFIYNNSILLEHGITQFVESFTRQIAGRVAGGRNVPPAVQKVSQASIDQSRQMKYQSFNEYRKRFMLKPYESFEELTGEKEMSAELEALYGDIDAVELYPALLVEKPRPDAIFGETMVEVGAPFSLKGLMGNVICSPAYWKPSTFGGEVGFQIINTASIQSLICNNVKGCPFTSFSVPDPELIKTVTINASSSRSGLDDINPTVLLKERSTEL
Method: as §1
Blood is divided into two groups; one will be used to determine COX-1 activity and the other one for COX-2. The procedure to follow will be different in each case.
For COX-2, 3-mL tubes are prepared in duplicate containing 5 μL of the test compound (solution in DMSO) and 5 μL of vehicle in the case of blanks and controls. To each tube, 5 μL of a 2 mg/mL solution of aspirin in DMSO is also added (in order to inhibit COX-1 activity), and to all tubes except the blanks 5 μL of LPS is also added (in order to induce COX-2 activy). Finally, 1 mL of heparinized blood is added to each tube, and tubes are then stirred and placed in a thermostatized bath at 37° C. for 24 h. Then, tubes are centrifuged at 2000 g for 10 min at 4° C., the resulting plasma is collected and is frozen at −70° C. until use. COX-2 activity is determined by measuring prostaglandin E2 levels in the samples. The plasma stored at −70° C. is defrozen and prostaglandin E2 levels in these samples are determined using a kit (Kit Prostaglandin E2, Biotrak EIA system RPN222 Amershan), according to the manufacturer's instructions.

T1 sequence (P23219 24-599): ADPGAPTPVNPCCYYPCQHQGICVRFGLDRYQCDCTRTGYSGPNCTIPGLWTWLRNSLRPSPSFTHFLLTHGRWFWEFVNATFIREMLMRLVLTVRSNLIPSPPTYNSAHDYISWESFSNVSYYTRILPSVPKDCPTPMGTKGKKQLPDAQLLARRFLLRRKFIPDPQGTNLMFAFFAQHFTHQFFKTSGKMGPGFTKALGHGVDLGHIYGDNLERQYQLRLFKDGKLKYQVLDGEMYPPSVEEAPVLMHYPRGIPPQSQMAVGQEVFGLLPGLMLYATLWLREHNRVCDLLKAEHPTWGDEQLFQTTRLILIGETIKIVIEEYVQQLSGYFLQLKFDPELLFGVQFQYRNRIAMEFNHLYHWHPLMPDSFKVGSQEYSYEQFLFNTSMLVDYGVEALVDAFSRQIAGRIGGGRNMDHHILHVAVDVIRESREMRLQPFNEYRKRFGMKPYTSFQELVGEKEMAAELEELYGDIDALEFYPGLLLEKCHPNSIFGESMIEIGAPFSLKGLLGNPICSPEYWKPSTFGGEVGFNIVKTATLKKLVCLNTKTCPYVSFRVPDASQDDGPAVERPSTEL

Row | SMILES | inhibition at 10 µM (cyclooxygenase-1 (COX-1)) [%] | inhibition at 10 µM (cyclooxygenase-2 (COX-2)) [%] | inhibition at 1 µM (cyclooxygenase-2 (COX-2)) [%] | melting point [°C] | further results
1 | CS(=O)(=O)c1ccc(-n2cnc(Cl)c2-c2ccc(Cl)nc2Cl)cc1 [4(17)] | – | – | – | – | % inhibition COX-1 (10 μM) (cyclooxygenase-1 (COX-1)): 22.7%; % inhibition COX-2 (1 μM) (cyclooxygenase-2 (COX-2)): 65%; % inhibition COX-2 (10 μM) (cyclooxygenase-2 (COX-2)): 86.3%
2 | Cc1ccc(-c2c(Cl)ncn2-c2ccc(S(N)(=O)=O)cc2)cc1 [13(3), 4-[4-Chloro-5-(4-methylphonyl)imidazol-1-yl]benzenesulfonamide] | – | – | – | – | % inhibition COX-1 (10 μM) (cyclooxygenase-1 (COX-1)): 71.3%; % inhibition COX-2 (1 μM) (cyclooxygenase-2 (COX-2)): 76.1%; % inhibition COX-2 (10 μM) (cyclooxygenase-2 (COX-2)): 100%
3 | CCOc1cc(OCC)cc(-c2cncn2-c2ccc(S(C)(=O)=O)cc2)c1 [Example 1(21), 5-(3,5-Diethoxyphenyl)-1-(4-methylsulfonylphenyl)imidazole] | – | – | – | 100 to 101 | –
4 | CSc1ccc(-c2cncn2-c2ccc(S(C)(=O)=O)cc2)cc1 [Example 1(24), 5-(4-Methylsulfanylphenyl)-1-(4-methylsulfonylphenyl)imidazole] | – | – | – | 153 to 155 | –
5 | CS(=O)(=O)c1ccc(-c2cnc(Cl)n2-c2ccc(F)cc2)cc1 [Example 7, 2Chloro-1-(4-fluorophenyl)-5-(4-methylsulfonylphenyl)imidazole] | 60.1 | 100 | 85.6 | – | –
6 | CS(=O)(=O)c1ccc(-c2cnc(C#N)n2-c2ccc(F)cc2)cc1 [Example 10, 1-(4-Fluorophenyl)-5-(4-methylsulfonylphenyl)imidazol-2-carbonitrile] | 52.7 | 100 | 74 | – | –
7 | CS(=O)(=O)c1ccc(-c2cnc(Cl)n2-c2ccccc2)cc1 [Example 11, 2-Chloro-5-(4-methylsulfonylphenyl)-1-phenylimidazole] | – | – | – | 185 to 193 | –
8 | NS(=O)(=O)c1ccc(-n2cncc2-c2ccc(F)cc2)cc1 [Example 14, 4-[5-(4-Fluorophenyl)imidazol-1-yl]benzenesulfonamide] | – | – | – | 196 to 197 | –
9 | CC(=O)Nc1ccc(-c2[nH]c(-c3ccc(S(C)(=O)=O)cc3)nc2Cl)cc1 [Example 18, 5-(4-Acetylaminophenyl)-4-chloro-(4-methylsulfonylphenyl)imidazole] | – | – | – | 238 to 241 | –

Continued, in another order:

Row | inhibition at 10 µM (cyclooxygenase-1 (COX-1)) [%] | inhibition at 10 µM (cyclooxygenase-2 (COX-2)) [%] | inhibition at 1 µM (cyclooxygenase-2 (COX-2)) [%] | melting point [°C] | SMILES | further results
10 | 34 | 100 | – | – | Cc1ccc(-c2c(Cl)ncn2-c2ccc(S(C)(=O)=O)cc2)cc1 [4(1), 4-Chloro-5-(4-methylphenyl)-1-(4-methylsulfonylphenyl)imidazole] | –
11 | 47.9 | 96 | 82.6 | – | CS(=O)(=O)c1ccc(-n2cnc(Cl)c2-c2ccccc2)cc1 [4(3), 4-Chloro-1-(4-methylsulfonylphenyl)-5-phenylimidazole] | –
12 | 47.5 | 100 | 75.1 | – | Cc1ccc(-c2c(Cl)ncn2-c2ccc(S(C)(=O)=O)cc2)cc1F [4(8), 4-Chloro-5-(3-fluoro-4-methylphenyl)-1-(4-methylsulfonylphenyl)-imidazole] | –
13 | 39.7 | 100 | 58.4 | – | Cc1ccc(-c2c(Cl)ncn2-c2ccc(S(C)(=O)=O)cc2)cn1 [4(11), 4-Chloro-5-(6-methyl-3-pyridyl)-1-(4-methylsulfonylphenyl)imidazole] | –
14 | 42.5 | 100 | – | – | CS(=O)(=O)c1ccc(-n2cnc(Cl)c2-c2ccc(Cl)nc2)cc1 [4(16), 4-Chloro-5-(6-chloro-3-pyridyl)-1-(4-methylsulfonylphenyl)imidazole] | –
15 | 72.1 | 100 | 100 | – | CCOc1ccc(-c2c(Cl)ncn2-c2ccc(S(C)(=O)=O)cc2)cc1 [4(22), 4-Chloro-5-(4-ethoxyphenyl)-1-(4-methylsulfonylphenyl)imidazole] | –
16 | – | – | – | 167 to 169 | CCCOc1ccc(-c2cncn2-c2ccc(S(C)(=O)=O)cc2)cc1 [Example 1(20), 1-(4-Methylsulfonylphenyl)-5-(4-propoxyphenyl)imidazole] | –
17 | 8.3 | 86.5 | – | – | Cc1ncn(-c2ccc(S(C)(=O)=O)cc2)c1-c1ccc(F)cc1 [Example 3, 5-(4-Fluorophenyl)-4-methyl-1-(4-methylsulfonylphenyl)imidazole] | –
18 | 37.8 | 100 | 89 | – | CS(=O)(=O)c1ccc(-n2cnc(Cl)c2-c2ccc(F)cc2)cc1 [Example 4, 4-Chloro-5-(4-fluorophenyl)-1-(4-methylsulfonylphenyl)imidazole] | –
19 | 33.8 | 100 | 85.2 | – | CS(=O)(=O)c1ccc(-n2cnc(Br)c2-c2ccc(F)cc2)cc1 [Example 5, 4-Bromo-5-(4-fluorophenyl)-1-(4-methylsulfonylphenyl)imidazole] | –
20 | 70.6 | 100 | 83.6 | 156 to 160 | Cc1ccc(-n2c(-c3ccc(S(C)(=O)=O)cc3)cnc2Cl)cc1 [Example 12, 2-Chloro-1-(4-methylphenyl)-5-(4-methylsulfonylphenyl)imidazole] | –
